Assay results: patent US12496350B2 (Ohio State Innovation Foundation, priority 2018, dated 2025)
Where a SMILES comes first, the peptide text is derived from it. Bridges are numbered along the chain shown (N, C = ends). [ ]: non-standard residue; d: D form. 2Nal = N[C@@H](Cc1ccc2ccccc2c1)C(=O)O; Bta = N[C@@H](Cc1csc2ccccc12)C(=O)O; Pen = CC(C)(S)[C@H](N)C(=O)O; Tle = CC(C)(C)[C@H](N)C(=O)O; Pip = O=C(O)[C@@H]1CCCCN1

Legend:
[1] = system: HeLa cells; assay: Cellular uptake efficiency by flow cytometry; type: cell-based; settings: for Uptake (% rel.): relative to CPP9 (100%)
Method: (§1) Cellular Uptake Efficiency: HeLa cells were seeded into 12-well cell-culture treated plates at a final density of 15×10^4 cells/well in DMEM supplemented with 10% FBS and 1% penicillin/streptomycin and incubated overnight at 37° ° C. and 5% CO2. After 24 h, the media was aspirated followed by washing the cells three times with warm DPBS. Peptides were diluted to a final concentration of 5 μM in DMEM containing 10% FBS with 1% penicillin/streptomycin, added to each well and then incubated for 2 h at 37° C. and 5% CO2. After 2 h, treatment media was aspirated and the cells were washed three times with ice-cold DPBS. Cells were removed from the plate via treatment with trypsin/EDTA and then harvested in ice-cold DPBS followed by centrifugation at ×300 RCF, 4° C. for 5 min. Cells were resuspended in DPBS and quantified using a BD Biosciences LSR II flow cytometer and gated using FlowJo. Values for uptake are provided as a percentage relative to positive control, CPP9 ([cyclo-fΦRrRrQ]-miniPEG-K[NF]).
as §1, with “Cellular Uptake. HeLa cells” for “Cellular Uptake Efficiency: HeLa cells”, “at 37° C. and” for “at 37° ° C. and”, “37° C. with 5% CO2.” for “37° C. and 5% CO2.”, “centrifugation at 300 g, 4° C.” for “centrifugation at ×300 RCF, 4° C.”, “control, CPP9 ([cyclo-fΦRrRrQ]-miniPEG-K[NF]), which has a 62% cytosolic entry efficiency. PGD97 entered HeLa cells at 60% efficiency relative to CPP9, corresponding to an absolute cytosolic entry efficiency of ˜36% (FIG. 9).” for “control, CPP9 ([cyclo-fΦRrRrQ]-miniPEG-K[NF]).”

[2] = biological target: T1, CAL PDZ domain (CALP5-His) (Homo sapiens, UniProt Q9HD26); assay: FP/FA-based competition assay, Condition A (probe peptide 26); type: binding; settings: Condition A (superscript a): 50 nM probe peptide 26, 100 nM CALP5-His, 2 mM TCEP
T1 construct: His
Text: First, the C-terminal valine (position 0) was replaced with a variety of residues and evaluated for binding to CAL PDZ domain in silico.

[3] = Preliminary tests of cellular activity; type: cell-based; settings: 50 nM concentration
[4] = biological target: T1, CAL PDZ domain (CALP5-His); assay: FP-based competition assay, Condition B (probe FAM-[…]-OH); type: binding
Method: Serial dilutions of each competitor peptide were prepared in PBS and the incubation solution was added to each. The combined solutions were gently mixed for 1 h at RT after which 20 uL sample was pipetted into 384-well black-on-black microplates and fluorescence polarization was measured using a TECAN Infinite M1000 plate reader. Data was processed to determine IC50 using GraphPad PRISM ver. 6.0.

[5] = system: HCT116 (colorectal cancer) cells; assay: Cytotoxicity, MTT assay; type: cell-based; settings: 72 h, up to 50 μM
Method: (§2) Cytotoxicity. CFBE, HCT116 (colorectal cancer), or H358 (lung cancer) cells were seeded into a 96-well microplate (5000 cells per well) in full growth media and incubated at 37° C. overnight. A serial dilution of PGD97 was prepared in DPBS and then added to each well. The treated cells were incubated at 37° C. with 5% CO2 for 72 h. Following compound treatment, 10 μL of MTT stock solution was added to each well. After an additional 4 h at 37° C., 100 μL of SDS-HCl solubilizing solution was added to each well and the plate was returned to the incubator overnight at 37° C. A Tecan Infinite M1000 Pro microplate reader was used the following morning to measure the absorbance of the formazan product at 565 nm.

[6] = system: CFBE cells; assay: Cytotoxicity, MTT assay; type: cell-based; settings: 72 h, up to 50 μM
Method: as §2

[7] = system: H358 (lung cancer) cells; assay: Cytotoxicity, MTT assay; type: cell-based; settings: 72 h, up to 50 μM
Method: as §2

[8] = system: LC3-II; assay: Autophagy in macrophages, western blotting for LC3-II; type: cell-based, human; settings: 100 nM, 48 h, ΔF508 CFTR macrophages
Method: Effect on Autophagy in Macrophage. Human primary ΔF508 CFTR macrophages were incubated with 10 μM VX809 (n=1) or 100 nM PGD97 (n=2) for 48 h in complete growth medium supplemented with 10% FBS and 1% penicillin/streptomycin at 37° C. Induction of autophagy was determined via western blotting for autophagy-associated protein LC3-II.

[9] = system: ΔF508CFTR-FAP; assay: ΔF508 CFTR membrane expression, FAP assay in HEK-293T cells; type: cell-based
Method: Effect on ΔF508 CFTR Membrane Expression. HEK-293T cells stably expressing ΔF508CFTR-FAP (Holleran et al. Mol. Med. 2012, 18, 685-696) were seeded into poly-L-lysine-coated white-wall, clear bottom 96-well plates (100,000 cells/well) in complete growth medium and incubated for 24 h at 27° ° C. or 37° C. and 5% CO2. After 24 h, media was aspirated from each well and washed twice with warm DPBS. Compound serial dilutions with or without 10 μM VX809 were added to each well in fresh penicillin/streptomycin-free media containing 10% FBS and incubated at 27° ° C. or 37° ° C. in 5% CO2 for 24 h. After 24 h, the media was aspirated and each well was washed 3× with warm DPBS. 500 nM MG-B-Tau and 500 nM Hoechst 33342 was added in DPBS and MG-B-Tau fluorescence was immediately measured on a TECAN Infinite M1000 plate reader (excitation=640 nm, emission=680 nm, 10 nm bandwidth, 16 distinct points per well). After measurement, the plate was returned to the incubator at 37° C. for 1 h before quantifying Hoechst 33342 fluorescence on a TECAN Infinite M1000 plate reader (excitation=362 nm, emission=492 nm, 5 nm bandwidth, identical points per well as measured for MG-B-Tau). Cell-count normalized fluorescent intensity was determined by dividing the per-well MG-B-Tau intensity by Hoechst intensity and then plotted relative to untreated control using GraphPad PRISM ver. 7.0.

[10] = system: patient-derived primary cells; assay: Short-circuit current, Ussing chamber; type: cell-based, human; settings: 100 nM with 10 μM VX661, 24 h
Method: (§3) Effect on Ion Channel Activity. CFBE or patient-derived primary cells were seeded onto filter inserts and grown to confluence at 37° C. in complete growth medium containing 10% FBS and 1% penicillin/streptomycin. Once confluent, cells were gently washed with DPBS and 10 µM VX661 and/or 100 nM PGD97 were added in complete growth medium supplemented with 10% FBS and 1% penicillin/streptomycin for 4 h or 24 h at 37° ° C. before measuring short circuit current using an Ussing chamber. PGD97 improved the ion channel activity by 33% and 37% relative to VX661 only controls after 4 and 24 h, respectively (FIGS. 12A and 12B).

[11] = system: HCT116 cell spheroids; assay: Intracellular stability by MALDI imaging; type: in vitro ADME; settings: after 4 or 24 h incubation with PGD97
Method: Intracellular Stability. PGD97 ([…]) was added to HCT116 cell spheroids in RPMI-1640 medium supplemented with 10% FBS and 1% penicillin/streptomycin and incubated for 4 or 24 h. After incubation, spheroids were washed 3× with DPBS, quickly frozen, embedded in a solid support, and cryo-sectioned. Prior to analysis, sinapinic acid was sublimed onto individual slides. The sample was imaged using a Bruker ultrafleXtreme MALDI-TOF-TOF and analyzed for the presence of proteolytic degradation fragments. Heatmaps, scaled relative to the most intense signal, were generated for the intact peptide (both 29 and 32) as well as ˜20 potential proteolytic fragments at each time point. […] A degradation fragment (#1) corresponding to proteolytic cleavage between Thr and Arg (FIG. 8B) was observed, but none of the other potential degradation products were observed. […] Most importantly, significant concentrations of intact peptide 29 was still present inside the cells after 24 h.

[12] = system: CFBE cells; assay: Short-circuit current, Ussing chamber; type: cell-based; settings: 100 nM with 10 μM VX661, relative to VX661 only control
Method: as §3

[13] = system: HeLa cells; settings: positive control value; cited from earlier work

For `CC(=O)N[C@@H](CS)C(=O)N[C@@H](CCCNC(=N)N)C(=O)N[C@H](CCCNC(=N)N)C(=O)N[C@@H](CCCNC(=N)N)C(=O)N[C@@H](Cc1ccc2ccccc2c1)C(=O)N[C@@H](Cc1c[nH]c2ccccc12)C(=O)N[C@@H](CCC(N)=O)C(=O)N[C@H](C(=O)N[C@H](C(=O)N[C@@H](CCCNC(=N)N)C(=O)N[C@H](C(=O)O)C(C)(C)C)[C@@H](C)O)C(C)(C)S` [Compound 22, Ac-Cys-Arg-(D-Arg)-Arg-(2-Nal)-Trp-Gln-Pen-Thr-Arg-Tle-OH] (Ac-CR[dR]R[2Nal]WQ[Pen]TR[Tle]-OH), the “Uptake (% rel.)” value ([1]; HeLa cells, 5 μM, 2 h) was 17 ± 2% and the IC50 [2] was 0.401 µM.

For `CC(=O)N[C@@H](CS)C(=O)N[C@H](CCCNC(=N)N)C(=O)N[C@@H](CCCNC(=N)N)C(=O)N[C@@H](CCCNC(=N)N)C(=O)N[C@@H](Cc1ccc2ccccc2c1)C(=O)N[C@@H](Cc1csc2ccccc12)C(=O)N[C@H](C(=O)N[C@H](C(=O)N[C@H](C(=O)N[C@@H](CCCNC(=N)N)C(=O)N[C@H](C(=O)O)C(C)(C)C)[C@@H](C)O)C(C)(C)C)C(C)(C)S` [Compound 25, Ac-Cys-(D-Arg)-Arg-Arg-(2-Nal)-(Bta)-Pen-Tle-Thr-Arg-Tle-OH] (Ac-C[dR]RR[2Nal][Bta][Pen][Tle]TR[Tle]-OH), the cellular activity [3] was “robust cellular activity”, the IC50 ([4]; Condition B (superscript b): 100 nM probe FAM-[…]-OH, 500 nM CALP5-His, 5 mM DTT) was 0.235 µM and the “potency in CAL binding, fold more potent” value ([4]; relative to peptide 24) was 1.5 fold. The improvement in cell-permeability ([1]; Bta for Trp at P-5, relative to peptide 24) was > 5 fold, the “Uptake (% rel.)” value ([1]; HeLa cells, 5 μM, 2 h) was 518 ± 74% and the “cell-permeability, fold better” value ([1]; relative to CPP9) was 5 fold. The “cell-permeability, fold better” value ([1]; relative to peptide 20) was ~20 fold.

In the case of `CC(=O)N[C@H]1CSSC(C)(C)[C@@H](C(=O)N[C@H](C(=O)N[C@@H](CCCNC(=N)N)C(=O)N[C@H](C(=O)O)C(C)(C)C)[C@@H](C)O)NC(=O)[C@@H]2CCCCN2C(=O)[C@H](Cc2csc3ccccc23)NC(=O)[C@H](Cc2ccc3ccccc3c2)NC(=O)[C@H](CCCNC(=N)N)NC(=O)[C@H](CCCNC(=N)N)NC(=O)[C@@H](CCCNC(=N)N)NC1=O` [Compound 32, Ac-Cys*-(D-Arg)-Arg-Arg-Nal-Bta-Pip-Pen*-Thr-Arg-Tle-OH] (Ac-C[dR]RR[2Nal][Bta][Pip][Pen]TR[Tle]-OH; disulfide 1-8), the cell viability [5] is reported as “did not significantly reduce the viability”, the cell viability [6] is reported as “did not significantly reduce the viability” and the cell viability [7] is reported as “did not significantly reduce the viability”. The LC3-II protein levels [8] was “increased the LC3-II protein levels to nearly WT level”, the “concentrations at which increased expression was observed” value [9] was 10 to 1000 nM and the “cell surface expression of ΔF508CFTR-FAP” value ([9]; 10 μM PGD97) was “reduced its surface expression”. For the same molecule, the “cell surface expression of ΔF508CFTR-FAP” value ([9]; PGD97 alone, 27° C., 24 h) was “slightly increased”, the “cell surface expression of ΔF508CFTR-FAP” value ([9]; in combination with 10 μM VX809, 27° C.) was “further increase in cell surface expression” and the “cytosolic entry efficiency relative to CPP9” value ([1]; HeLa cells, 5 μM, 2 h) was 60%. The “absolute cytosolic entry efficiency” value ([1]; HeLa cells, from relative efficiency and CPP9 value) was ~36%, the “ion channel activity (short-circuit current)” value [10] was “significantly increased the ion channel activity” and the “presence of intact peptide in spheroids” value [11] was “not”. For the same molecule, the “improvement of ion channel activity (short-circuit current)” value ([12]; after 4 h) was 33% and the “improvement of ion channel activity (short-circuit current)” value ([12]; after 24 h) was 37%.

For [cyclo-fΦRrRrQ]-miniPEG-K[NF] [CPP9], the cytosolic entry efficiency [13] is given as 62%.
